Measured values from PubChem BioAssay AID248 (DTP/NCI, 2004).
Several values for one entry are separate records, joined by “and”; a condition that tells them apart may be missing. Identical values can stand only once. Toxic doses and inconclusive results are not listed. Rule as the data show it: active = T/C of 150% or more; inactive = T/C below 125%.

Test system: L1210 leukemia ip in BDF1 mice, survival T/C
Assay: NCI In Vivo Anticancer Drug Screen. Data for tumor model L1210 Leukemia (intraperitoneal) in B6D2F1 (BDF1) mice
Settings: endpoint: mean survival time, higher = longer survival
Method in brief: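 In this screen, tumor-bearing mice given compound are compared to those given vehicle, and their survival values are reported as a treated-to-control quotient.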

[1] = dose: 100.0 mg/kg/injection, schedule: Q01DX001 (ip), vehicle: saline
[2] = dose: 200.0 mg/kg/injection, schedule: Q01DX001 (ip), vehicle: saline
[3] = dose: 400.0 mg/kg/injection, schedule: Q01DX001 (ip), vehicle: saline
[4] = dose: 100.0 mg/kg/injection, schedule: Q01DX001 (ip), vehicle: carboxymethylcellulose (CMC)
[5] = dose: 200.0 mg/kg/injection, schedule: Q01DX001 (ip), vehicle: carboxymethylcellulose (CMC)
[6] = dose: 100.0 mg/kg/injection, schedule: Q01DX009 (ip), vehicle: saline with Tween-80
[7] = dose: 100.0 mg/kg/injection, schedule: Q04DX003 (ip), vehicle: saline with Tween-80
[8] = dose: 200.0 mg/kg/injection, schedule: Q04DX003 (ip), vehicle: saline with Tween-80
[9] = dose: 400.0 mg/kg/injection, schedule: Q04DX003 (ip), vehicle: saline with Tween-80
[10] = dose: 100.0 mg/kg/injection, schedule: Q04DX002 (ip), vehicle: saline with Tween-80
[11] = dose: 200.0 mg/kg/injection, schedule: Q04DX002 (ip), vehicle: saline with Tween-80
[12] = dose: 400.0 mg/kg/injection, schedule: Q04DX002 (ip), vehicle: saline with Tween-80
[13] = dose: 100.0 mg/kg/injection, schedule: Q01DX001 (ip), vehicle: Klucel (hydroxypropylcellulose) (HPC)
[14] = dose: 200.0 mg/kg/injection, schedule: Q01DX001 (ip), vehicle: Klucel (hydroxypropylcellulose) (HPC)
[15] = dose: 50.0 mg/kg/injection, schedule: Q01DX009 (ip), vehicle: saline with Tween-80
[16] = dose: 75.0 mg/kg/injection, schedule: Q01DX001 (ip), vehicle: other
[17] = dose: 150.0 mg/kg/injection, schedule: Q01DX001 (ip), vehicle: other
[18] = dose: 100.0 mg/kg/injection, schedule: Q04DX003 (ip), vehicle: Klucel (hydroxypropylcellulose) (HPC)
[19] = dose: 200.0 mg/kg/injection, schedule: Q04DX003 (ip), vehicle: Klucel (hydroxypropylcellulose) (HPC)

Measured: T/C

NC(CS)(CS)C(=O)O
inactive: dose: 15.0 mg/kg/injection, schedule: Q01DX015 (ip), vehicle: carboxymethylcellulose (CMC) 107 % of control | dose: 30.0 mg/kg/injection, schedule: Q01DX015 (ip), vehicle: carboxymethylcellulose (CMC) 113 % of control | dose: 60.0 mg/kg/injection, schedule: Q01DX015 (ip), vehicle: carboxymethylcellulose (CMC) 120 % of control

Cc1cc(=O)[nH]c2c(O)ccc([N+](=O)[O-])c12
inactive: dose: 100.0 mg/kg/injection, schedule: Q04DX003 (ip), vehicle: saline 103 % of control | dose: 200.0 mg/kg/injection, schedule: Q04DX003 (ip), vehicle: saline 103 % of control | dose: 400.0 mg/kg/injection, schedule: Q04DX003 (ip), vehicle: saline 103 % of control

O=C(O)C1CCCC2C(O)CCC(=O)C12 (stereo not drawn)
inactive: [1] 95 % of control and 107 % of control | dose: 100.0 mg/kg/injection, schedule: Q01DX009 (ip), vehicle: saline sonified 98 % of control | dose: 100.0 mg/kg/injection, schedule: Q04DX003 (ip), vehicle: saline sonified 100 % of control | [2] 104 % of control and 101 % of control | dose: 200.0 mg/kg/injection, schedule: Q01DX009 (ip), vehicle: saline sonified 102 % of control | dose: 200.0 mg/kg/injection, schedule: Q04DX003 (ip), vehicle: saline sonified 92 % of control | [3] 107 % of control and 96 % of control | dose: 400.0 mg/kg/injection, schedule: Q01DX009 (ip), vehicle: saline sonified 93 % of control | dose: 400.0 mg/kg/injection, schedule: Q04DX003 (ip), vehicle: saline sonified 95 % of control

Cc1nnc2c3ccccc3c(-c3ccccc3)nn12
inactive: [4] 104 % of control | [5] 106 % of control

BrC1(Br)C2CC3C(CC21)C1CC2C(CC31)C2(Br)Br (stereo not drawn)
inactive: [6] 97 % of control | [7] 94 % of control | dose: 200.0 mg/kg/injection, schedule: Q01DX009 (ip), vehicle: saline with Tween-80 96 % of control | [8] 95 % of control | dose: 400.0 mg/kg/injection, schedule: Q01DX009 (ip), vehicle: saline with Tween-80 105 % of control | [9] 92 % of control

COc1ccc2nc3cc(Cl)ccc3c(NCCCSCCCl)c2n1
inactive: dose: 2.0 mg/kg/injection, schedule: Q01DX009 (ip), vehicle: saline 116 % of control | dose: 8.0 mg/kg/injection, schedule: Q01DX009 (ip), vehicle: saline 109 % of control

CCC(O)(c1ccccc1)c1cnc(C)n1Cc1ccccc1 (stereo not drawn)
inactive: dose: 100.0 mg/kg/injection, schedule: Q01DX001 (ip), vehicle: saline with Tween-80 100 % of control and 108 % of control | dose: 100.0 mg/kg/injection, schedule: Q04DX002 (ip), vehicle: Klucel (hydroxypropylcellulose) (HPC) 102 % of control | [10] 93 % of control and 105 % of control | [7] 101 % of control | dose: 200.0 mg/kg/injection, schedule: Q01DX001 (ip), vehicle: saline with Tween-80 107 % of control and 91 % of control | dose: 200.0 mg/kg/injection, schedule: Q04DX002 (ip), vehicle: Klucel (hydroxypropylcellulose) (HPC) 112 % of control | [11] 88 % of control and 91 % of control | [8] 100 % of control | [12] 88 % of control and 90 % of control

CNC(COC(=O)c1ccc(N)cc1)C1CCCCC1 (stereo not drawn)
inactive: dose: 75.0 mg/kg/injection, schedule: Q01DX001 (ip), vehicle: saline 97 % of control

CSc1ncc2c(=O)n(C)[nH]c2n1
inactive: [13] 93 % of control | [14] 92 % of control | dose: 400.0 mg/kg/injection, schedule: Q01DX001 (ip), vehicle: Klucel (hydroxypropylcellulose) (HPC) 90 % of control

NC(=O)C[CH2][Sn]([c]1ccccc1)([c]1ccccc1)[c]1ccccc1
inactive: [15] 101 % of control | [6] 112 % of control

CC1CCN(C(=O)CC#N)CC1
inactive: dose: 50.0 mg/kg/injection, schedule: Q01DX009 (ip), vehicle: saline 108 % of control | dose: 100.0 mg/kg/injection, schedule: Q01DX009 (ip), vehicle: saline 112 % of control | dose: 100.0 mg/kg/injection, schedule: Q04DX002 (ip), vehicle: saline 102 % of control | dose: 200.0 mg/kg/injection, schedule: Q04DX002 (ip), vehicle: saline 102 % of control

N#CC(OC(=O)c1ccccc1)c1ccccc1 (stereo not drawn)
inactive: [16] 104 % of control | [17] 105 % of control

CN1CCC2(CC1)C(=O)N(c1ccccc1)C(=O)C2c1ccccc1 (stereo not drawn)
inactive: [13] 102 % of control | [14] 98 % of control

CCN(C(=O)Nc1cccc(Cl)c1)c1ccccc1C
inactive: [7] 93 % of control | [8] 88 % of control

Cc1noc(/N=C(/C(=N/c2onc(C)c2C)c2ccccc2)c2ccccc2)c1C
inactive: [18] 97 % of control | [19] 103 % of control | dose: 400.0 mg/kg/injection, schedule: Q04DX003 (ip), vehicle: Klucel (hydroxypropylcellulose) (HPC) 97 % of control

Cc1ccc(S(=O)(=O)OC2CCCC3CCCCC32)cc1 (stereo not drawn)
inactive: [1] 98 % of control | [2] 100 % of control | [3] 98 % of control

O=C(Cc1ccccc1)NCc1ccccc1Cl
inactive: dose: 25.0 mg/kg/injection, schedule: Q01DX009 (ip), vehicle: saline with Tween-80 103 % of control | [15] 94 % of control | [6] 96 % of control and 87 % of control | [10] 96 % of control | dose: 150.0 mg/kg/injection, schedule: Q01DX009 (ip), vehicle: saline with Tween-80 89 % of control | [11] 107 % of control | dose: 225.0 mg/kg/injection, schedule: Q01DX009 (ip), vehicle: saline with Tween-80 94 % of control | dose: 335.0 mg/kg/injection, schedule: Q01DX009 (ip), vehicle: saline with Tween-80 91 % of control | [12] 111 % of control

COc1cc(C(=O)NN(C)C)cc(OC)c1OC
inactive: [4] 97 % of control | [5] 101 % of control | dose: 400.0 mg/kg/injection, schedule: Q01DX001 (ip), vehicle: carboxymethylcellulose (CMC) 101 % of control

CCCc1cc(CN2CCCCC2)c(O)c(CN2CCCCC2)c1O
inactive: [1] 96 % of control | [2] 95 % of control | [3] 88 % of control

CC1CCC(NCCOC(=O)c2ccc(N)cc2)CC1 (stereo not drawn)
inactive: [16] 94 % of control | [17] 108 % of control

CN(C)c1ccc(/C=C2\N=C(c3ccc([N+](=O)[O-])cc3)OC2=O)cc1
inactive: dose: 100.0 mg/kg/injection, schedule: Q01DX009 (ip), vehicle: Klucel (hydroxypropylcellulose) (HPC) 96 % of control | dose: 200.0 mg/kg/injection, schedule: Q01DX009 (ip), vehicle: Klucel (hydroxypropylcellulose) (HPC) 101 % of control | dose: 400.0 mg/kg/injection, schedule: Q01DX009 (ip), vehicle: Klucel (hydroxypropylcellulose) (HPC) 93 % of control

O=C(NCC(F)(F)C(F)(F)C(F)(F)C(F)(F)C(F)(F)C(F)(F)C(F)(F)F)Oc1ccccc1
inactive: [16] 104 % of control | [17] 96 % of control | dose: 300.0 mg/kg/injection, schedule: Q01DX001 (ip), vehicle: other 94 % of control

S=P1(c2ccccc2)Nc2cc3ccccc3cc2N1
inactive: [7] 97 % of control | [8] 100 % of control | [9] 96 % of control

CNC(=O)c1cnc(SC)nc1N
inactive: dose: 50.0 mg/kg/injection, schedule: Q04DX003 (ip), vehicle: Klucel (hydroxypropylcellulose) (HPC) 103 % of control | [13] 103 % of control | [18] 101 % of control | [14] 100 % of control | [19] 111 % of control

Cc1cc(O)[nH]c(=O)c1
inactive: dose: 5.0 mg/kg/injection, schedule: Q01DX001 (ip), vehicle: saline 105 % of control | dose: 10.0 mg/kg/injection, schedule: Q01DX001 (ip), vehicle: saline 105 % of control | dose: 20.0 mg/kg/injection, schedule: Q01DX001 (ip), vehicle: saline 100 % of control | dose: 40.0 mg/kg/injection, schedule: Q01DX001 (ip), vehicle: saline 105 % of control | dose: 80.0 mg/kg/injection, schedule: Q01DX001 (ip), vehicle: saline 100 % of control

CC(=O)OC/C=C(\C)CCC1OC1(C)C (stereo not drawn)
inactive: [1] 120 % of control | dose: 100.0 mg/kg/injection, schedule: Q04DX003 (ip), vehicle: water 102 % of control | [2] 108 % of control | dose: 200.0 mg/kg/injection, schedule: Q04DX003 (ip), vehicle: water 112 % of control | [3] 114 % of control | dose: 400.0 mg/kg/injection, schedule: Q04DX003 (ip), vehicle: water 101 % of control
